This is an account of results in PubChem BioAssay (NCI).

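1) Cells in 96-well plates. 2) Compound, 48 h, 5 concentrations. 3) Linear interpolation between surrounding doses. 4) Unreached endpoint = highest concentration. GI50 marks 50% less growth. TGI: concentration producing complete growth inhibition.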 *1 amine or outer side, *2 acyl side, *3 side chain or, on linkers, in order; H or OH if unused. Where a SMILES comes first, the peptide text is derived from it. Bridges are numbered along the chain shown (N, C = ends). Roman numbers before positions name the chains, in order. X23 = CCCCCCCCCCCCCCC(=O)NC(CCCCN[*:2])C(=O)CN1CCCC1C(=O)[*:1] A value given as a limit tells only on which side of the number the result lay.

Some test systems named below: 786-0 renal; CAKI-1 renal; CCRF-CEM leukemia; IGROV1 ovarian; NCI-H23 lung; NCI-H460 lung; OVCAR-4 ovarian; OVCAR-8 ovarian; SK-MEL-28 melanoma; UO-31 renal.
Holding throughout (test): NCI-60 cell line screen, 48 h

As for `O=C1NC2(NC(=O)C1=O)Nc1ccccc1S2`, the TGI with 786-0 renal was 48.6 µM; in the assay with CAKI-1 renal, more than 100 µM; in the assay on CCRF-CEM leukemia it was 66.3 µM; in the assay with IGROV1 ovarian, more than 100 µM; in the assay on NCI-H23 lung, more than 100 µM; in the assay with NCI-H460 lung it was more than 100 µM. For the same molecule, the TGI with OVCAR-4 ovarian was more than 100 µM; in the assay with OVCAR-8 ovarian, more than 100 µM; in the assay on SK-MEL-28 melanoma, more than 100 µM; in the assay on UO-31 renal, more than 95.4 µM.
As to `COC[C@@H]1Cc2cc(OC)c3c(c2[C@H](c2ccc(OC)c(OC)c2)[C@H]1COC)OCO3`, the TGI with CCRF-CEM leukemia, with IGROV1 ovarian, with NCI-H23 lung, with NCI-H460 lung, in the assay with OVCAR-8 ovarian and with SK-MEL-28 melanoma was more than 100 µM in each case. The molecule also returned a TGI in the assay with UO-31 renal of more than 100 µM.
As for `CC(C)(C)C(=O)CC(=O)C(F)(F)C(F)(F)C(F)(F)F.CC(C)(C)C(=O)CC(=O)C(F)(F)C(F)(F)C(F)(F)F.CC(C)(C)C(=O)CC(=O)C(F)(F)C(F)(F)C(F)(F)F.[Er]`, the TGI with 786-0 renal, in the assay with CAKI-1 renal, with CCRF-CEM leukemia, in the assay on IGROV1 ovarian, with NCI-H23 lung and in the assay on NCI-H460 lung was more than 100 µM throughout. Besides, the TGI in the assay on OVCAR-4 ovarian, in the assay on OVCAR-8 ovarian, in the assay with SK-MEL-28 melanoma and in the assay on UO-31 renal was more than 100 µM each time.
`CC(C)(C)OC(=O)N1CCCC1C(=O)NCCNc1ccc(NCCNC(=O)C2CCCN2C(=O)OC(C)(C)C)c2c1C(=O)c1ccccc1C2=O` (stereo unspecified): the TGI in the assay with 786-0 renal is 28 µM; in the assay with CAKI-1 renal, 36.9 µM; in the assay with CCRF-CEM leukemia, more than 100 µM; in the assay with IGROV1 ovarian it was 31.7 µM; with NCI-H23 lung, 29.4 µM; in the assay on OVCAR-4 ovarian, 51.4 µM. The results for the TGI with OVCAR-8 ovarian and with SK-MEL-28 melanoma were 21 µM and 35.6 µM, respectively.
`CN(CCNC(=O)c1cn(C)c2c1ccc1cc(Cl)ccc12)CCNC(=O)c1cn(C)c2c1ccc1cc(Cl)ccc12`: the TGI in the assay with CAKI-1 renal is 4.99 µM; in the assay on CCRF-CEM leukemia, 66 µM; in the assay with IGROV1 ovarian, 21.6 µM; in the assay with NCI-H23 lung it was 4.87 µM; in the assay with NCI-H460 lung, more than 100 µM; in the assay with OVCAR-4 ovarian, 3.68 µM. The TGI in the assay with OVCAR-8 ovarian turned out to be 33.8 µM; in the assay on SK-MEL-28 melanoma, 10.9 µM; in the assay on UO-31 renal it was 2.94 µM.
In the case of `CCCCCCCCCCCCCCC(=O)NC(CCCCNC(=O)C1CCCN1C(=O)C(CCCCN)NC(=O)C(CCCCN)NC(=O)C(CCCCN)NC(=O)C(CCCNC(=N)N)NC(=O)C(CCCCN)NC(=O)C(N)C(C)C)C(=O)CN1CCCC1C(=O)NCC(=O)NC(Cc1ccccc1)C(=O)N1CCCC1C(=O)NC(CO)C(=O)NC(Cc1ccc(O)cc1)C(=O)NC(CCCCN)C(=O)NC(CC(C)C)C(=O)NC(CCCNC(=N)N)C(=O)N1CCCC1C(=O)NCC(N)=O` (stereo unspecified) (I: GFPSYKLRPG-NH2 / II: H-VKRKKKP; linker I:N-II:C via X23; configuration not given here), the GI50 is 14 µM in the assay with CAKI-1 renal; 16.5 µM in the assay with CCRF-CEM leukemia; 14.8 µM in the assay on IGROV1 ovarian; 23.8 µM with NCI-H23 lung; 14.6 µM with NCI-H460 lung; 28.7 µM with OVCAR-4 ovarian. For the same molecule, the GI50 with OVCAR-8 ovarian was 26.3 µM; with SK-MEL-28 melanoma, 11.3 µM; in the assay on UO-31 renal, 24.7 µM. Also, the TGI with CAKI-1 renal was 36.9 µM; with CCRF-CEM leukemia, 35.1 µM; in the assay on IGROV1 ovarian it was 52.4 µM; with NCI-H23 lung it was 92.8 µM; with NCI-H460 lung, 49.9 µM; in the assay on OVCAR-4 ovarian, 97.1 µM. Also, the figures for the TGI with OVCAR-8 ovarian, in the assay with SK-MEL-28 melanoma and with UO-31 renal were 85.8 µM, 98.6 µM and 77.1 µM, respectively.
In the case of `O=[P+](O)c1cccs1`, the TGI in the assay on CAKI-1 renal, with CCRF-CEM leukemia, in the assay with IGROV1 ovarian, in the assay with NCI-H23 lung, with NCI-H460 lung and in the assay with OVCAR-8 ovarian was more than 100 µM throughout. The TGI with SK-MEL-28 melanoma and in the assay with UO-31 renal was more than 100 µM throughout.
Turning to `CC(=O)C1=C(C)N(c2ccc(C)cc2)C2(O)C=CC(=O)C3=C(O)c4ccccc4C(=O)C312` (stereo unspecified), the TGI in the assay on 786-0 renal is more than 100 µM; in the assay on CAKI-1 renal it was 35.8 µM; in the assay on IGROV1 ovarian, more than 100 µM; with NCI-H23 lung, 52.5 µM; with NCI-H460 lung it was more than 100 µM; in the assay on OVCAR-4 ovarian, 36 µM. Besides, the TGI came to 64.6 µM in the assay on OVCAR-8 ovarian, 34.5 µM with SK-MEL-28 melanoma and 34.8 µM with UO-31 renal.
As to `CCOC(=O)c1c(SC)nc(-c2ccc(Cl)cc2)sc1=N`, the TGI in the assay on 786-0 renal is more than 100 µM; in the assay on CAKI-1 renal, more than 100 µM; with CCRF-CEM leukemia, more than 100 µM; with IGROV1 ovarian it was 54.5 µM; in the assay with NCI-H23 lung, 80.3 µM; in the assay with NCI-H460 lung, more than 100 µM. Further, the TGI is more than 100 µM in the assay with OVCAR-4 ovarian, 80 µM in the assay with OVCAR-8 ovarian, more than 100 µM in the assay on SK-MEL-28 melanoma and more than 100 µM with UO-31 renal.
As to `O=[N+]([O-])c1ccc(/C=N/n2c(CCc3n[nH]c(=S)n3/N=C/c3ccc([N+](=O)[O-])o3)n[nH]c2=S)o1`, the TGI in the assay with 786-0 renal was 31.9 µM; in the assay with CAKI-1 renal it was 44.8 µM; in the assay with CCRF-CEM leukemia it was 67.7 µM; in the assay on IGROV1 ovarian, more than 100 µM; in the assay on NCI-H23 lung, 34.7 µM; in the assay on NCI-H460 lung, more than 100 µM. Also, the TGI with OVCAR-4 ovarian is 36.7 µM; with OVCAR-8 ovarian, more than 100 µM; in the assay with SK-MEL-28 melanoma, 31.5 µM; with UO-31 renal, 89.9 µM.
For the molecule `CC1C(O)[C@@]2(OC[C@@]34C(=O)CC5(O)[C@H](CCC6Cc7nc8c(nc7C[C@]65C)CC5CC[C@@H]6C7=C[C@H]9O[C@@]%10(O[C@@](C)(CO)C[C@@H]%10O)C(C)[C@@]9(O)[C@]7(C)[C@@H](O)CC6[C@]5(C)C8)C3=CC[C@H]4C2C)OC1(C)C` (stereo partly specified), the TGI in the assay on CAKI-1 renal is 0.977 µM; in the assay with CCRF-CEM leukemia, 0.0966 µM; in the assay on IGROV1 ovarian it was more than 3.55 µM; in the assay on NCI-H23 lung it was 0.435 µM; in the assay on NCI-H460 lung, 0.0937 µM; in the assay with OVCAR-4 ovarian it was more than 3.55 µM. In addition, the TGI in the assay on OVCAR-8 ovarian was more than 3.55 µM; with UO-31 renal, 0.134 µM.
For the molecule `O=C1/C(=C/c2ccc3c(c2)OCO3)Sc2scc(-c3ccc(O)c(O)c3)[n+]21`, the TGI is 5.48 µM in the assay with 786-0 renal; 2.9 µM in the assay on CAKI-1 renal; 8.09 µM in the assay with IGROV1 ovarian; 9.29 µM with NCI-H23 lung; 12.8 µM with NCI-H460 lung; 14 µM with OVCAR-4 ovarian. The TGI in the assay with OVCAR-8 ovarian was 9.94 µM; with SK-MEL-28 melanoma, more than 100 µM; with UO-31 renal, 6.08 µM.
